Experimental data taken from ChEMBL document CHEMBL5241103, “Progress in the development of domain selective inhibitors of the bromo and extra terminal domain family (BET) proteins” (Eur J Med Chem, 2021).
pIC50, pKd, pKi: −log10 of the molar value. One block for each compound: values may come before it.

Legend:
[1] = molecular target: T1, Bromodomain-containing protein 2 (Homo sapiens, UniProt P25440); test: Binding affinity to BDR2-BD1 (unknown origin) by TR-FRET assay
[2] = molecular target: T1, Bromodomain-containing protein 2; test: Binding affinity to BDR2- BD2 (unknown origin) by TR-FRET assay
Homo sapiens [3] = species on record: Homo sapiens; test: Selectivity ratio of Kd for BRD2 BD1 (unknown origin) to Kd for BRD2 BD2 (unknown origin)
Homo sapiens [4] = species on record: Homo sapiens; test: Selectivity ratio of Kd for BRD4 BD1 (unknown origin) to Kd for BRD4 BD2 (unknown origin)
[5] = molecular target: T2, Bromodomain-containing protein 4 (Homo sapiens, UniProt O60885); test: Inhibition of his 6 tagged BRD4 D1 (unknown origin) expressed in Escherichia coli BL21 (DE3) by fluorescence anisotropy assay
Homo sapiens [6] = species on record: Homo sapiens; test: Selectivity ratio of IC50 for BRD4 BD2 (unknown origin) to IC50 for BRD4 BD1 (unknown origin)
[7] = molecular target: Mitogen-activated protein kinase 14 (Homo sapiens, UniProt Q16539)
Chain of Mitogen-activated protein kinase 14 (Q16539 whole entry): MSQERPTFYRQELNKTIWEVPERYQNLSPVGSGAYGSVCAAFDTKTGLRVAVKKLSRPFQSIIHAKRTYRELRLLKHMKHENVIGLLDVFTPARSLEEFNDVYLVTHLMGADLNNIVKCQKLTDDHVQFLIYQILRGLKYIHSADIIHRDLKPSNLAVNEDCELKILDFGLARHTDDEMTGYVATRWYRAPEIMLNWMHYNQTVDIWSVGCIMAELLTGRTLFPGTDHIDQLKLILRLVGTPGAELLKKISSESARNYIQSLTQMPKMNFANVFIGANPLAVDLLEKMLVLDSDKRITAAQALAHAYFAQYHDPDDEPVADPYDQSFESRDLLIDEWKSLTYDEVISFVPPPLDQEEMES
Description: Binding affinity to p38 alpha (unknown origin) assessed as dissociation constant by DiscoverX kinomescan method

[8] = molecular target: T2, Bromodomain-containing protein 4; test: Binding affinity to human BRD4 BD1 assessed as inhibition constant incubated for 1 hr by competitive binding assay
[9] = molecular target: T2, Bromodomain-containing protein 4; test: Binding affinity to human BRD4 BD2 assessed as inhibition constant incubated for 1 hr by competitive binding assay
Homo sapiens [10] = species on record: Homo sapiens; test: Selectivity ratio of Ki for human BRD4 BD2 to Ki for BRD4 BD1
[11] = Inhibition of BRD BD1 (unknown origin) by alpha screen assay; parameters: species or system Homo sapiens
[12] = Inhibition of BRD BD2 (unknown origin) by alpha screen assay; parameters: species or system Homo sapiens
Homo sapiens [13] = species on record: Homo sapiens; test: Selectivity ratio of IC50 for BRD BD1 (unknown origin) to IC50 for BRD BD2 (unknown origin)

T1 sequence (P25440 whole entry): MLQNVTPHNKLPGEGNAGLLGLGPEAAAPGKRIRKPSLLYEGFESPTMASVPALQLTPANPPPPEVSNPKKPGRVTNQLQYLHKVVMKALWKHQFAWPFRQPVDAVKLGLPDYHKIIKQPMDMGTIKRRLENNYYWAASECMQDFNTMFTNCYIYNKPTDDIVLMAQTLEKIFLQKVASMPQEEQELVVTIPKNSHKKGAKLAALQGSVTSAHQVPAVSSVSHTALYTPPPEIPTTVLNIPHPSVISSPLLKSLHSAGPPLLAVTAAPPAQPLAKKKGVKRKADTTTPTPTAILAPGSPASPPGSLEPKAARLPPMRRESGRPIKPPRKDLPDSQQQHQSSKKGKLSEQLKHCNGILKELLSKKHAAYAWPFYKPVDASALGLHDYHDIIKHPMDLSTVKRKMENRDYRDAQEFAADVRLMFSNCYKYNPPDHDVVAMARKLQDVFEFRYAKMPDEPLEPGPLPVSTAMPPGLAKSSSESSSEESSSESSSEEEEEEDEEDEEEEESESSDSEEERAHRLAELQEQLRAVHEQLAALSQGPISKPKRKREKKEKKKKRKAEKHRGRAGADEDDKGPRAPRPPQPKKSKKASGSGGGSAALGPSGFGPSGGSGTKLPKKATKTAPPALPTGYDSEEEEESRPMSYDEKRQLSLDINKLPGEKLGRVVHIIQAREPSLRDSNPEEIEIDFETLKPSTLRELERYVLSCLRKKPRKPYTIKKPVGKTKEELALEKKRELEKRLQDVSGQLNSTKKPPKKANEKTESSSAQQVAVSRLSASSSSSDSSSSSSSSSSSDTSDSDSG

Compound: CC(=O)N1c2ccc(-c3cc[nH]n3)cc2[C@H](Nc2ccc(C#N)cc2)C[C@@H]1C
pKd [1]: 6.31
pKd [2]: 8.22
Ratio (Homo sapiens [3]): 80
Ratio (Homo sapiens [4]): 152

Compound: Cc1cc(C)cc(Oc2nccc(-c3c(-c4ccc(C(F)(F)F)cc4)ncn3C3CCN(CCN)CC3)n2)c1
pIC50 [5]: 6.89
Ratio IC50 (Homo sapiens [6]): 9
pKd [7]: 5.72

Compound: COc1cc(OC)c2c(=O)[nH]c(-c3cc(C)c(OCCN4CCCC4)c(C)c3)nc2c1
pIC50 [11]: 5.94
pIC50 [12]: 7.70
Ratio IC50 (Homo sapiens [13]): 40

More lines, now with the values ahead:

pKd [1]: 6.03
pKd [2]: 7.85
Ratio (Homo sapiens [3]): 67
Compound: COC(=O)c1ccc(N[C@@H]2C[C@H](C)N(C(C)=O)c3ccc(-c4cccc(NC(C)=O)c4)cc32)cc1

pKi [8]: 7.11
pKi [9]: 6.14
Ratio Ki (Homo sapiens [10]): 9
Compound: COc1ccc(NC(=O)c2ccc(NC3=C(C)C(=O)CC3)c(Cl)c2)cc1
